Data from the NIST ThermoML archive (doi:10.1016/j.tca.2009.03.014).

Tests used:
[1] = excess molar enthalpy (molar enthalpy of mixing); xn = mol fraction of the nth substance listed; settings: 308.15 K, 101 kPa, Liquid, Calvet calorimetry
[2] = xn = mol fraction of the nth substance listed; settings: 308.15 K, 101 kPa, Liquid; for excess molar volume: Direct dilatometry; for speed of sound: Linear variable-path acoustic interferometer
[3] = 101.33 kPa, Liquid; for mass density: Pycnometric method; for speed of sound: Linear variable-path acoustic interferometer

O=C1CCCN1 [2-pyrrolidinone] + CCCO
Settings | excess molar enthalpy [kJ/mol] | excess molar volume [m3/mol] | speed of sound [m/s]
[1], x1 = 0.0592 | 0.248 | – | –
[1], x1 = 0.1085 | 0.39 | – | –
[1], x1 = 0.1966 | 0.567 | – | –
[1], x1 = 0.2273 | 0.608 | – | –
[1], x1 = 0.3287 | 0.672 | – | –
[1], x1 = 0.3782 | 0.667 | – | –
[1], x1 = 0.4394 | 0.649 | – | –
[1], x1 = 0.495 | 0.61 | – | –
[1], x1 = 0.5219 | 0.581 | – | –
[1], x1 = 0.5951 | 0.522 | – | –
[1], x1 = 0.6622 | 0.45 | – | –
[1], x1 = 0.7539 | 0.338 | – | –
[1], x1 = 0.8065 | 0.284 | – | –
[1], x1 = 0.8946 | 0.166 | – | –
[2], x1 = 0.0349 | – | -2.3e-08 | –
[2], x1 = 0.0973 | – | -6.7e-08 | –
[2], x1 = 0.0982 | – | – | 1219.3
[2], x1 = 0.1436 | – | -1e-07 | –
[2], x1 = 0.158 | – | – | 1240.8
[2], x1 = 0.1968 | – | – | 1255
[2], x1 = 0.2052 | – | -1.38e-07 | –
[2], x1 = 0.2654 | – | -1.75e-07 | –
[2], x1 = 0.2958 | – | – | 1294.4
[2], x1 = 0.3299 | – | -2.08e-07 | –
[2], x1 = 0.3309 | – | – | 1308.9
[2], x1 = 0.3881 | – | -2.27e-07 | –
[2], x1 = 0.3952 | – | – | 1336.5
[2], x1 = 0.4485 | – | – | 1359.7
[2], x1 = 0.4495 | – | -2.44e-07 | –
[2], x1 = 0.4949 | – | – | 1380.7
[2], x1 = 0.521 | – | – | 1391.8
[2], x1 = 0.5246 | – | -2.48e-07 | –
[2], x1 = 0.5749 | – | -2.46e-07 | –
[2], x1 = 0.5951 | – | – | 1425.6
[2], x1 = 0.6516 | – | -2.27e-07 | –
[2], x1 = 0.6957 | – | – | 1470.7
[2], x1 = 0.7314 | – | – | 1485.7
[2], x1 = 0.7453 | – | -1.85e-07 | –
[2], x1 = 0.7968 | – | – | 1515.4
[2], x1 = 0.8357 | – | -1.29e-07 | –
[2], x1 = 0.8982 | – | – | 1558.4
[2], x1 = 0.9206 | – | -6.5e-08 | –

O=C1CCCN1 [2-pyrrolidinone] + CCO
Settings | excess molar enthalpy [kJ/mol] | excess molar volume [m3/mol] | speed of sound [m/s]
[1], x1 = 0.0647 | 0.269 | – | –
[1], x1 = 0.1158 | 0.428 | – | –
[1], x1 = 0.2075 | 0.586 | – | –
[1], x1 = 0.2768 | 0.623 | – | –
[1], x1 = 0.338 | 0.635 | – | –
[1], x1 = 0.38 | 0.619 | – | –
[1], x1 = 0.4337 | 0.584 | – | –
[1], x1 = 0.5337 | 0.494 | – | –
[1], x1 = 0.605 | 0.433 | – | –
[1], x1 = 0.6856 | 0.349 | – | –
[1], x1 = 0.7539 | 0.271 | – | –
[1], x1 = 0.7929 | 0.231 | – | –
[1], x1 = 0.8436 | 0.19 | – | –
[1], x1 = 0.8904 | 0.131 | – | –
[2], x1 = 0.0767 | – | -9.2e-08 | –
[2], x1 = 0.0784 | – | – | 1172.9
[2], x1 = 0.1393 | – | -1.72e-07 | –
[2], x1 = 0.1607 | – | – | 1230.8
[2], x1 = 0.1763 | – | -2.15e-07 | –
[2], x1 = 0.1963 | – | – | 1252.8
[2], x1 = 0.2471 | – | – | 1282.9
[2], x1 = 0.2676 | – | -3.07e-07 | –
[2], x1 = 0.338 | – | – | 1327.2
[2], x1 = 0.3493 | – | -3.68e-07 | –
[2], x1 = 0.3876 | – | – | 1349.4
[2], x1 = 0.4016 | – | -3.94e-07 | –
[2], x1 = 0.4337 | – | – | 1366.5
[2], x1 = 0.4713 | – | – | 1381
[2], x1 = 0.4865 | – | -4.16e-07 | –
[2], x1 = 0.5347 | – | – | 1404.3
[2], x1 = 0.5479 | – | -4.13e-07 | –
[2], x1 = 0.5985 | – | – | 1427.8
[2], x1 = 0.6015 | – | -3.94e-07 | –
[2], x1 = 0.6412 | – | – | 1444.8
[2], x1 = 0.6573 | – | -3.66e-07 | –
[2], x1 = 0.7145 | – | -3.21e-07 | –
[2], x1 = 0.7539 | – | – | 1492.3
[2], x1 = 0.7982 | – | -2.4e-07 | –
[2], x1 = 0.8064 | – | – | 1518.1
[2], x1 = 0.856 | – | -1.75e-07 | –
[2], x1 = 0.8887 | – | – | 1559.4
[2], x1 = 0.92 | – | -9.7e-08 | –

CCCCO [butan-1-ol]
[3]
Settings | mass density [kg/m3] | speed of sound [m/s]
298.15 K | 809.5 | –
308.15 K | – | 1232.2

CCO [ethanol]
[3]
Settings | mass density [kg/m3] | speed of sound [m/s]
298.15 K | 785.08 | –
308.15 K | – | 1112

CCCO [propan-1-ol]
[3]
Settings | mass density [kg/m3] | speed of sound [m/s]
298.15 K | 799.28 | –
308.15 K | – | 1188.2

CC(C)O [propan-2-ol]
[3], 298.15 K
Settings | mass density [kg/m3] | speed of sound [m/s]
– | 780.98 | 1135.9
